What is called solubility is the dissolved amount per volume that the medium holds.

In brackets after ≈: the same amount, converted by molar mass.

The series can be described thus: water solubility by ultraviolet (UV) spectrophotometry. Type of series: physicochemical. Conditions: at 25 °C, free pesticide, read-out: intrinsic solubility. The source says: Figure 1: Diagram of a solubility study using ultraviolet (UV) spectrophotometry of Bendiocarb as the concentration of cyclodextrin increases. Figure 2: Graph of differential scanning thermogravimetry (DST) of Bifenthrin alone, cyclodextrin (CD) alone, physical mixture of the two, and inclusion complex formed (encapsulated). Figure 3: Curves of differential thermal analysis (DTA) and thermal gravimetric analysis (TGA) of Tetramethrin alone, cyclodextrin (CD) alone, physical mixture of the two, and different inclusion complexes formed according to methods 1 or 2 and with the indicated stechiometries 1:1 or 2:1. Figure 4: Spectra of Nuclear Magnetic Resonance (1 H NMR) of Acetamiprid alone (a), cyclodextrin (CD) alone (b) and formed inclusion complex (c). Figure 5: Scanning electron photographs (SEM) of the structural change of Tebuconazole once the inclusion complex with cyclodextrin is formed. Figure 6: X-ray diffractograms (XRD) of Imidacloprid alone, cyclodextrin (CD) alone, physical mixture of both and inclusion complex formed (encapsulation). Figure 7: Diagram of the three-dimensional structures of the Acetamiprid-cyclodextrin complex by formation of a single crystal. Figure 8: Structural modelling by means of the program MACROMODEL of the Acetamiprid-cyclodextrin dimer. Figure 9: Performance of the Bendiocarb microencapsulation reaction (DSC). […]

`CNC(=O)Oc1cccc2c1OC(C)(C)O2` [Bendiocarb]: the solubility is 600 µM (≈ 134 µg/mL).

The record behind these values is patent EP2848122A1, “NEW PESTICIDE INCLUSION COMPLEXES, CO[…] COMPLEXES AND THE USE THEREOF AS PESTICIDES” (priority 2012, dated 2013).
